By IC50 is commonly meant the midpoint of a concentration-inhibition curve.

In this test the target is NR1/NR2B (Homo sapiens (Human), UniProt Q05586+Q13224). In words: Cell assay: FDSS Ca2+ influx inhibition in HEK293 cells expressing NR1/NR2B.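 Also: Fluo-8 Ca2+ signal read on Hamamatsu FDSS 6000 after glutamate, glycine and Ca2+ challenge following 10 min compound preincubation, end/baseline fluorescence ratio compared with MK801 control.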
Setting [1] is: NR2B NAM IC50, HEK293 cells expressing NR1/NR2B, Ca2+ influx.
[2] abbreviates: Binned Activity, HEK293 cells expressing NR1/NR2B, Ca2+ influx, binned NR2B NAM IC50.

Sequence of NR1/NR2B (Q13224 27-1484, other chains not shown): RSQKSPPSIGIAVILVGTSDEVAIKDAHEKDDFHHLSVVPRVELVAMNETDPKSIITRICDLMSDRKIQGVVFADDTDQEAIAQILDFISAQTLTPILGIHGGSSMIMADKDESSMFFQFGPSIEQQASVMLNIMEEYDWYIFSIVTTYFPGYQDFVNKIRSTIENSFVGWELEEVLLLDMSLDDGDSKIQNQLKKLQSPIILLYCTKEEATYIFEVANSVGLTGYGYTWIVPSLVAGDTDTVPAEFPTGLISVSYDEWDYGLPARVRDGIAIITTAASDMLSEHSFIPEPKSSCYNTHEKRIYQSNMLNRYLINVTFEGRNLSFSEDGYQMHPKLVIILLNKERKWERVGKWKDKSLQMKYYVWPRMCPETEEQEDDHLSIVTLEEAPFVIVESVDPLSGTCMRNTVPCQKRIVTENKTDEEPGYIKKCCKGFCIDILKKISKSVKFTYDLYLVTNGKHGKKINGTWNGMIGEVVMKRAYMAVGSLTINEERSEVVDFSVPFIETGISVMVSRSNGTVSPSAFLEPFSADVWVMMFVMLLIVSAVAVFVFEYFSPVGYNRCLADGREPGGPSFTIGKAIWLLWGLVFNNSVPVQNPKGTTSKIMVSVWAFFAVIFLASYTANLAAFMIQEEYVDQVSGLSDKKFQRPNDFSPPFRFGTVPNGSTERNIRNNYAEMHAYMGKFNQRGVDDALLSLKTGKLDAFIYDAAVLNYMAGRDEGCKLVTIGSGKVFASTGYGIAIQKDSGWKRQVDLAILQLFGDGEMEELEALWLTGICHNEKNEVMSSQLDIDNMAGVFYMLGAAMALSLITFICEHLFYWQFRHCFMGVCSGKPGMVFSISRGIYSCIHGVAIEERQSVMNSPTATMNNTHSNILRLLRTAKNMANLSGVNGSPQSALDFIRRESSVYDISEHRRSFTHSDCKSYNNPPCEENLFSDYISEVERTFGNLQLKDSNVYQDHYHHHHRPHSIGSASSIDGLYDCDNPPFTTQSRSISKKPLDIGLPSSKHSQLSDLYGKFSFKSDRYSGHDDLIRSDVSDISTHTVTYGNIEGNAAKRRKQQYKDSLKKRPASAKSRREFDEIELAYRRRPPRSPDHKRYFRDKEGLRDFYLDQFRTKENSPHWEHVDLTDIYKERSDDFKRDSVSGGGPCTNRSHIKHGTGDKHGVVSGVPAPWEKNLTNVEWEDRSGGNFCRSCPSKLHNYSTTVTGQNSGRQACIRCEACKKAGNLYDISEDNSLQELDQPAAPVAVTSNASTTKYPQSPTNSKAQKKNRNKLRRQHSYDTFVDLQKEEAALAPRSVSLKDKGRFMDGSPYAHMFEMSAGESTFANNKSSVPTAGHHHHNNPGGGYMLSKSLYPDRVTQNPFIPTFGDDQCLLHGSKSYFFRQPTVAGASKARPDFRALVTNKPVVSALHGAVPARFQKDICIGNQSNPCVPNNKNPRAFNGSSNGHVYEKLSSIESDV
Method: Cell Culture and plating: HEK293 cells expressing NR1/NR2B (Chantest, Cleveland, Ohio) were grown to 70-80% confluency as an adherent monolayer in standard tissue culture flasks at 37° C., 5% CO2 per supplier's instructions. NR2B expression was induced by incubation with 0.3-0.4 μg/ml tetracycline in the presence of 4 mM ARL-15896 for 18-24 hours under the same growth conditions, then transferred to 30° C. for another 3-5 hours.
After induction, cell culture medium was removed and cells were rinsed once with Ca^2+ and Mg^2+-free Dulbecco's phosphate buffered saline. Cells were then removed from the flask using TrypLE™ Express (Life Technologies) according to the manufacturer's instructions and collected to 50 ml centrifuge tubes. Following two washes in Ca^2+/Mg^2+-free HBSS with 20 mM HEPES (HHnoCa), cells were counted and viability assessed using trypan blue. To load cells with Ca^2+-sensitive dye, they were resuspended in fluo-8 plus Component B (AAT Bioquest Products) diluted in HHnoCa and incubated 15 minutes at 37° C., followed by 30 minutes at room temp (in dark). Cells were then washed and resuspended in HHnoCa to remove extracellular dye and plated in 384-well plates (Falcon, uncoated) at 20,000-30,000 cells/well in a final volume of 25 μl/well.
FDSS Assay: To each well of the plate, 10 μL test compound, control (MK801) or HHnoCa buffer was added to a final concentration of 10 μM with a final concentration of DMSO of 0.1%. Following 10 minutes pre-incubation in the dark, plates are loaded onto the Hamamatsu FDSS 6000. After collecting baseline fluorescence images, 3 μM glutamate, 3 glycine, and 1 mM Ca^2+ in HHnoCa buffer is added to each well, and Ca^2+ is recorded for 3 minutes. Data were processed by computing ratio of fluorescence at the end of data collection to baseline fluorescence to assess degree of Ca′ influx inhibition relative to that observed in MK801.

With `O=C1CCc2cc(C(O)CN3C[C@@H]4C[C@@](O)(Cc5ccccc5)C[C@@H]4C3)ccc2N1` (mixture of isomers) [Example 153, rac-6-(2-((3aR,5r,6aS)-5-benzyl-5-hydroxyhexahydrocyclo-penta[c]pyrrol-2(1H)-yl)-1-hydroxyethyl)-3,4-dihydroquinolin-2(1H)-one], half-maximal inhibition under setting [1] (IC50) was put at 40.2 nM.

In turn, `CC(C(=O)c1ccc(O)cc1)N1C[C@@H]2C[C@](F)(Cc3ccccc3)C[C@@H]2C1` (mixture of isomers) [Example 317, rac-2-((3aR,5s,6aS)-5-benzyl-5-fluoro-hexahydrocyclopen-ta[c]pyrrol-2(1H)-yl)-1-(4-hydroxyphenyl)propan-1-one] came in with an IC50 under setting [1] of 284 nM.

Under setting [1], `Oc1ccc(C(O)CN2CC3(C2)CC(O)(Cc2ccccc2)C3)cc1` (racemic) [Example 343, rac-6-benzyl-2-(2-hydroxy-2-(4-hydroxyphenyl)ethyl)-2-azaspiro[3.3]heptan-6-ol] gave an IC50 of 506 nM.

`CC(C(=O)c1ccc(O)cc1)N1C[C@@H]2C[C@@](O)(c3ccc(F)cc3)C[C@@H]2C1` (mixture of isomers) [Example 92, rac-2-[5-(4-fluorophenyl)-5-hydroxy-octahydrocyclopenta[c]pyrrol-2-yl]-1-(4-hydroxyphenyl)propan-1-one]: the IC50 under setting [2] was over 10000 nM and the half-inhibitory concentration (IC50) under setting [1] is at least 10000 nM.

As for `COc1ccc(NC(=O)N2C[C@@H]3C[C@@](O)(c4ccccc4C)C[C@@H]3C2)cc1` [Example 8], the IC50 is over 10000 nM under setting [2] and at least 10000 nM under setting [1].

With `COc1cccc(C(O)CN2C[C@H]3C[C@@H](c4ccccc4)C[C@H]3C2)c1` (mixture of isomers) [Example 117, rac-1-(3-methoxyphenyl)-2-{5-phenyl-octahydrocyclopenta[c]pyrrol-2-yl}ethan-1-ol], the IC50 runs as follows: under setting [2], over 10000 nM; under setting [1], at least 10000 nM.

In the case of `Oc1ccc(C(O)CN2C[C@H]3C[C@@H](Cc4ccccc4)C[C@H]3C2)cc1` (mixture of isomers) [Example 304, rac-4-{2-[(3aR,5S,6aS)-5-benzyl-octahydrocyclopenta[c]pyrrol-2-yl]-1-hydroxyethyl}phenol], the IC50 reads like this: under setting [2], under 100 nM; under setting [1], 16.8 nM.

`COc1cccc(C[C@]2(O)C[C@H]3CN(CC(O)c4ccc(O)cc4)C[C@H]3C2)c1` (mixture of isomers) [Example 195, rac-(3aR,5r,6aS)-2-(2-hydroxy-2-(4-hydroxyphenyl)ethyl)-5-(3-methoxy-benzyl)octahydro-cyclopenta[c]pyrrol-5-ol] came in with an IC50 under setting [1] of 28.7 nM.

Turning to `CC(=O)Nc1ccc(C(O)CN2C[C@@H]3C[C@@](O)(Cc4ccccc4)C[C@@H]3C2)cn1` (mixture of isomers) [Example 283, rac-N-(5-(2-((3aR,5r,6aS)-5-benzyl-5-hydroxyhexahydrocyclo-penta[c]pyrrol-2(1H)-yl)-1-hydroxyethyl)pyridin-2-yl)acetamide], the IC50 was over 10000 nM under setting [2] and at least 10000 nM under setting [1].

For `COc1cccc([C@]2(O)C[C@H]3CN(CC(O)c4ccccc4)C[C@H]3C2)c1` (mixture of isomers) [Example 60, rac-2-(2-hydroxy-2-phenylethyl)-5-(3-methoxyphenyl)-octahydrocyclopenta[c] pyrrol-5-ol], the IC50 is over 10000 nM under setting [2] and at least 10000 nM under setting [1].

Consider `Oc1ccc(C(O)CN2C[C@@H]3C[C@@](O)(Cc4cccs4)C[C@@H]3C2)nc1` (mixture of isomers) [Example 215, rac-2-(2-hydroxy-2-(5-hydroxypyridin-2-yl)ethyl)-5-(thiophen-2-ylmethyl)octahydrocyclo-penta[c]pyrrol-5-ol], for which 25.7 nM corresponded to half-maximal inhibition under setting [1] (IC50). This lies in the double-digit nanomolar range.

As to `Oc1ccc(C(O)CN2C[C@@H]3C[C@@](O)(Cc4ccncc4)C[C@@H]3C2)cc1` (mixture of isomers) [Example 227, rac-(3aR,5r,6aS)-2-(2-hydroxy-2-(4-hydroxyphenyl)ethyl)-5-(pyridin-4-ylmethyl)octahydrocyclo-penta[c]pyrrol-5-ol], half-maximal inhibition under setting [1] (IC50) required 3150 nM.

Take `Cc1ccccc1[C@]1(O)C[C@H]2CN(C(C)C(O)c3ccc(O)cc3)C[C@H]2C1` (mixture of isomers) [Example 95, rac-2-[1-hydroxy-1-(4-hydroxyphenyl)propan-2-yl]-5-(2-methylphenyl)-octahydrocyclopenta[c] pyrrol-5-ol]: the IC50 reads like this: under setting [2], over 10000 nM; under setting [1], at least 10000 nM.

Turning to `Cc1ccccc1[C@]1(O)C[C@H]2CN(CC(O)c3cccc(C(F)(F)F)c3)C[C@H]2C1` (mixture of isomers) [Example 72, rac-2-{2-hydroxy-2-[3-(trifluoromethyl)phenyl]ethyl}-5-(2-methylphenyl)-octahydrocyclopenta[c] pyrrol-5-ol], the IC50 is over 10000 nM under setting [2] and at least 10000 nM under setting [1].

The compound `Oc1ccc(C(O)CN2C[C@H]3C[C@@H](Cc4ccccc4)C[C@H]3C2)cc1F` (mixture of isomers) [Example 301, rac-4-{2-[(3aR,5S,6aS)-5-benzyl-octahydrocyclopenta[c]pyrrol-2-yl]-1-hydroxyethyl}-2-fluorophenol] showed an IC50 under setting [1] of 12.2 nM. That is a double-digit nanomolar value.

`CC(C)(O)c1ccc(C(O)CN2C[C@@H]3C[C@@](O)(Cc4ccccc4)C[C@@H]3C2)cc1` (mixture of isomers) [Example 139, rac-(3aR,5r,6aS)-5-benzyl-2-(2-hydroxy-2-(4-(2-hydroxypropan-2-yl)phenyl)ethyl)octahydro-cyclopenta[c]pyrrol-5-ol]: the IC50 is over 10000 nM under setting [2] and at least 10000 nM under setting [1].

Under setting [2], `COc1cccc(NC(=O)N2C[C@@H]3C[C@@](O)(c4ccc(F)cc4)C[C@@H]3C2)c1` [Example 37] came in with an IC50 of over 10000 nM.

On to `CC(C(=O)c1ccc(O)cc1)N1C[C@H]2CC(CCc3ccccc3)C[C@H]2C1` (mixture of isomers) [Example 322, rac-1-(4-hydroxy-phenyl)2-[(5R)-5-(2-phenylethyl)-octahydrocyclopenta[c]pyrrol-2-yl]propan-1-one], for which the IC50 is 100 to 1000 nM (Binned Activity) and 533 nM (NR2B NAM IC50).

`Oc1c(F)cc(C(O)CN2C[C@@H]3C[C@@](O)(Cc4ccccc4)C[C@@H]3C2)cc1F` (mixture of isomers) [Example 160, rac-(3aR,5r,6aS)-5-benzyl-2-(2-(3,5-difluoro-4-hydroxyphenyl)-2-hydroxyethyl)octahydro-cyclopenta[c]pyrrol-5-ol] gave an IC50 under setting [1] of 98.1 nM.

With `Oc1ccc(C(O)CN2C[C@@H]3C[C@@](O)(c4cccnc4F)C[C@@H]3C2)nc1` (mixture of isomers) [Example 251, rac-(3aR,6aS)-5-(2-fluoropyridin-3-yl)-2-(2-hydroxy-2-(5-hydroxypyridin-2-yl)ethyl)octahydrocyclo-penta[c]pyrrol-5-ol], the IC50 runs as follows: under setting [2], over 10000 nM; under setting [1], at least 10000 nM.

Regarding `Oc1ccc(C(O)CN2C[C@@H]3C[C@@](O)(c4ccccc4)C[C@@H]3C2)cc1` (mixture of isomers) [Example 67, rac-2-[2-hydroxy-2-(4-hydroxyphenyl)ethyl]-5-phenyl-octahydrocyclopenta[c] pyrrol-5-ol], the IC50 is, setting by setting: under setting [2], over 10000 nM; under setting [1], at least 10000 nM.

In the case of `CC(=O)Nc1ccc(C(O)CN2C[C@@H]3C[C@@](O)(Cc4ccccc4)C[C@@H]3C2)cc1` (mixture of isomers) [Example 149, rac-N-(4-(2-((3aR,5r,6aS)-5-benzyl-5-hydroxyhexahydrocyclo-penta[c]pyrrol-2(1H)-yl)-1-hydroxyethyl)phenyl)acet-amide], under setting [1], the half-inhibitory concentration (IC50) came to 2310 nM.

Consider `Oc1ccc(C(O)CN2C[C@@H]3C[C@@](O)(Cc4cccs4)C[C@@H]3C2)cc1F` (mixture of isomers) [Example 222, rac-2-(2-(3-fluoro-4-hydroxyphenyl)-2-hydroxyethyl)-5-(thiophen-2-ylmethyl)octahydrocyclo-penta[c]pyrrol-5-ol], for which the IC50 under setting [2] was under 100 nM and half-maximal inhibition under setting [1] (IC50) was put at 19.3 nM.

`CO[C@@]1(Cc2ccccc2)C[C@H]2CN(CC(O)c3ccc(O)cc3)C[C@H]2C1` (mixture of isomers) [Example 176, rac-4-(2-((3aR,5r,6aS)-5-benzyl-5-methoxyhexahydrocyclo-penta[c]pyrrol-2(1H)-yl)-1-hydroxyethyl)phenol] had a 50% inhibitory concentration (IC50) under setting [1] of 32.4 nM. This lies in the double-digit nanomolar range.

In the case of `Oc1ccc(C(O)CN2C[C@H]3CN(Cc4ccccc4)C[C@H]3C2)cc1` (mixture of isomers) [Example 327, rac-4-(2-(5-benzylhexahydropyrrolo [3,4-c]pyrrol-2(1H)-yl)-1-hydroxyethyl)phenol], the half-inhibitory concentration (IC50) is 100 to 1000 nM under setting [2] and 139 nM under setting [1].

Under setting [1], `Oc1ccc(C(O)CN2C[C@@H]3C[C@@](O)(Cc4ccc(C(F)(F)F)cc4)C[C@@H]3C2)nc1` (mixture of isomers) [Example 217, rac-6-{2-[(3aR,5R,6aS)-5-hydroxy-5-{[4-(trifluoromethyl)phenyl]methyl}-octahydrocyclopenta[c]pyrrol-2-yl]-1-hydroxyethyl}pyridin-3-ol] displayed an IC50 of 36 nM.

`OC(CN1C[C@H]2CC(Cc3ccccc3)C[C@H]2C1)c1cccc(C(F)(F)F)c1` (mixture of isomers) [Example 309, rac-2-((3aR,6aS)-5-benzylhexahydrocyclo-penta[c]pyrrol-2(1H)-yl)-1-(3-(trifluoromethyl)phenyl) ethanol]: the IC50 is, setting by setting: under setting [2], over 10000 nM; under setting [1], at least 10000 nM.

Under setting [1], `Oc1ccc(C(O)CN2C[C@H]3CC(Cc4ccccc4)C[C@H]3C2)nc1` (mixture of isomers) [Example 298, rac-6-(2-{5-benzyl-octahydrocyclopenta[c]pyrrol-2-yl}-1-hydroxyethyl)pyridin-3-ol] showed an IC50 of 22.4 nM.

On to `Oc1ccc(C(O)CN2C[C@@H]3C[C@@](O)(Cc4ccc(F)cc4F)C[C@@H]3C2)cc1` (mixture of isomers) [Example 245, rac-5-(2,4-difluorobenzyl)-2-(2-hydroxy-2-(4-hydroxyphenyl)ethyl) octahydrocyclopenta[c] pyrrol-5-ol], for which the 50% inhibitory concentration (IC50) is under 100 nM under setting [2] and 23.8 nM under setting [1].

Consider `Oc1ccc(C(O)CN2C[C@H]3CN(Cc4ccccc4)C[C@H]3C2)cc1F` (mixture of isomers) [Example 341, rac-4-(2-(5-benzylhexahydropyrrolo [3,4-c]pyrrol-2(1H)-yl)-1-hydroxyethyl)-2-fluorophenol], for which the IC50 under setting [2] was under 100 nM and it took 74.3 nM to reach half-maximal inhibition under setting [1] (IC50).

For the origin of these results see patent US10052306B2 (LUC THERAPEUTICS, INC., priority 2013, dated 2018).
